Laboratory results: ChEMBL document CHEMBL1121370, “Synthesis and biological activity of a ketomethylene analogue of a tripeptide inhibitor of angiotensin converting enzyme” (J Med Chem, 1980)

What was measured:
[1] = Enzyme kinetic inhibition constant against tripeptide, Hip-His-Leu as substrate
Cavia porcellus = organism: Cavia porcellus; experiment: Compound is evaluated for the inhibition of guinea pig ileum contraction caused by 25 ng/mL angiotensin I; type: functional, organism-based
[2] = Enzyme kinetic inhibition constant against tripeptide, Angiotensin I as substrate in a competition inhibition assay

Ki [1]	IC50 (Cavia porcellus)	Ki [2]	Structure (SMILES)
106 nM	0.5 µg/mL	870 nM	O=C(N[C@@H](Cc1ccccc1)C(=O)CCC(=O)N1CCC[C@H]1C(=O)O)c1ccccc1
71.5 nM	0.05 µg/mL		C[C@H](CS)C(=O)N1CCC[C@H]1C(=O)O [CAPTOPRIL]
